Laboratory results from publication PMC6838683, “Discovery of Human Signaling Systems: Pairing Peptides to G Protein-Coupled Receptors” (Cell, 2019).
Like-named read-outs stand apart in the source and are kept apart here.

Assays:
BB3 [1] = target: T1, BB3 (Homo sapiens, UniProt P32247); experiment: IP1 accumulation (Gq/11), HTRF; format: cell-based
T1 construct: hIL-2Ra signal peptide (N); expressed in transfected cells
T1 sequence (P32247 2-399 limits assumed): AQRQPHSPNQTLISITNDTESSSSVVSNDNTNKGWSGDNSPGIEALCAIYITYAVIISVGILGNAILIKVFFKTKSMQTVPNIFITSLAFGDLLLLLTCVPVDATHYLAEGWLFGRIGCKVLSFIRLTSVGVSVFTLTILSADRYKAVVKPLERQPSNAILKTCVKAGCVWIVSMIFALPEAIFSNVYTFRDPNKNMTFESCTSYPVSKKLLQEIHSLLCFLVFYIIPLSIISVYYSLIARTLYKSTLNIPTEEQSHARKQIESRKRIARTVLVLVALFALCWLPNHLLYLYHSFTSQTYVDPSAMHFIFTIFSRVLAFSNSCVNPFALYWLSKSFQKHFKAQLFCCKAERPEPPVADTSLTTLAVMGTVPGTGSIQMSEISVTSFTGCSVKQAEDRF

GPR1 [2] = target: T2, GPR1 (Homo sapiens, UniProt P46091); experiment: β-arrestin recruitment (Tango), validation; format: cell-based; design: host or cells: HTLA cells (HEK293-derived); conditions: pEC50, Tango (fold over basal), GPR1; mean, SEM and n
T2 sequence (P46091 1-355): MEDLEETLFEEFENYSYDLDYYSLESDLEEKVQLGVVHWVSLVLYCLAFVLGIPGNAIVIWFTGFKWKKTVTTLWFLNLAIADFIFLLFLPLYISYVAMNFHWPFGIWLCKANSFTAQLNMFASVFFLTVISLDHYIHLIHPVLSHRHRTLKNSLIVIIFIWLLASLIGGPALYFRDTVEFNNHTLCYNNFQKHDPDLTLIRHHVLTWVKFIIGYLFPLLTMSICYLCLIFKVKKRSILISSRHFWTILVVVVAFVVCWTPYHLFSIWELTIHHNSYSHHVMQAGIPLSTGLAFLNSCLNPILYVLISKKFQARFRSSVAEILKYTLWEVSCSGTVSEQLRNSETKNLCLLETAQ

BB3 [3] = target: T1, BB3; experiment: Dynamic mass redistribution (DMR), concentration-response; format: cell-based
BB3 [4] = target: T3, BB3 (Homo sapiens, UniProt P32247); experiment: β-arrestin recruitment (Tango), validation; format: cell-based
T3 construct: host or cells: HTLA cells (HEK293-derived)
T3 sequence (P32247 1-399): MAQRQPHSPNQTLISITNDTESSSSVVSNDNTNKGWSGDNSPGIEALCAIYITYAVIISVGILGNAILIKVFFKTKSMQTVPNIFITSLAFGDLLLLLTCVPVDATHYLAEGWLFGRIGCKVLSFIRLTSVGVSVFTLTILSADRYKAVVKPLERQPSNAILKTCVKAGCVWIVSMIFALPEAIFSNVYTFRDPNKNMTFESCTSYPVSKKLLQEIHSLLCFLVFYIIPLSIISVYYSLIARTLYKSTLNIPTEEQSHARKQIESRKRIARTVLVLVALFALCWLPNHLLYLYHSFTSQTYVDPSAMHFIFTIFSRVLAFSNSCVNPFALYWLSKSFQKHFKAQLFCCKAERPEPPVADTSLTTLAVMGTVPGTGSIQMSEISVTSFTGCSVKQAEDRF
Experimental: The peptide library was additionally screened against 120 GPCR targets in parallel, including all available orphan receptors and 27 known class A peptide receptors using the Tango assay platform ([Kroeze et al., 2015]). Briefly, HTLA cells (a HEK293 cell line stably expressing a tTA-dependent luciferase reporter and a β-arrestin2-TEV fusion gene) were plated 10,000 cells/well in poly-L-lysine–coated clear-bottom white 384-well plates in DMEM supplemented with 10% FBS, 100 U/ml penicillin and 100 μg/ml streptomycin, 2 μg/ml puromycin and 100 μg/ml hygromycin B. 24 hr later, cells were transfected with Tango GPCR constructs using the calcium phosphate method ([Jordan et al., 1996]). The next day, culture medium was changed to DMEM + 1% dFBS and 10 μM peptides were added for overnight stimulation. Bright-Glo solution (Promega) was incubated for 15–20 min at room temperature, and luminescence was counted using a Trilux luminescence counter (Wallac).
For subsequent peptide validation experiments using Tango assays, HTLA cells were transiently transfected in 10 cm dishes with the receptor of interest using polyethylenimine (PEI) ([Longo et al., 2013]). After 24 hr, 25,000 cells/well were plated in clear bottom, white-walled 384-well plates. Assays were performed as described above, with luminescence measured using an EnSpire 2300 Multimode plate reader (PerkinElmer). Luminescence counts were exported into Excel and were analyzed using GraphPad Prism 7.

GPR1 [5] = target: T2, GPR1; experiment: β-arrestin recruitment (PathHunter); format: cell-based; conditions: GPR1; mean, SEM and n; read-out: pEC50, PathHunter (fold over basal) (converted)
Experimental: PathHunter eXpress Assays (DiscoverX) were performed in 384-well format according to the manufacturer’s recommendations. GPR1 cells were incubated with peptides for 90 min and luminescence measured using an EnSpire 2300 Multimode plate reader (PerkinElmer).

BB3 [6] = target: T1, BB3; experiment: Real-time receptor internalization (TR-FRET), concentration-response; format: cell-based
human GPCRs = system: human GPCRs; design: method as in Guide to Pharmacology database; conditions: max reported value, ref Guide to Pharmacology database, cited from earlier work
Excerpt: Supplement mmc1.xlsx, sheet "HumanGPCRLigands" | column: pKi_value; pKd_value; pEC50_value; pIC50_value

GPR68 [7] = target: T4, GPR68 (Homo sapiens, UniProt Q15743); experiment: Dynamic mass redistribution (DMR), concentration-response; format: cell-based; design: hIL-2Ra signal peptide (N); expressed in transfected cells; conditions: receptor GPR68; mean, SEM and n (3-4)
T4 sequence (Q15743 2-365 limits assumed): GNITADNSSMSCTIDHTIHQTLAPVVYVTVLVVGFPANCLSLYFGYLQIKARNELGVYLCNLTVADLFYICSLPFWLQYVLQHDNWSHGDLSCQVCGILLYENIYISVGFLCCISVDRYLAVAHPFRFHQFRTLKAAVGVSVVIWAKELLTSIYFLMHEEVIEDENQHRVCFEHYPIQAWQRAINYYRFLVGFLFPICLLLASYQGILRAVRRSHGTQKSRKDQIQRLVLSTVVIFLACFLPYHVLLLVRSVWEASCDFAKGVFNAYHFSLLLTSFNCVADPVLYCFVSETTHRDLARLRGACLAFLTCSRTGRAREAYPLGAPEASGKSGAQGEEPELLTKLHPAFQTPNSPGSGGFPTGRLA
In short: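 Doxycycline-induced (0.1 μg/ml) SNAP-tagged receptors in TREx 293 cells, equilibrated 90 min at 22°C in HEPES-buffered HBSS, pH 7.4, with 0.1% DMSO. Peptide-evoked optical wavelength shift recorded for 60 min at 22°C, buffer/solvent corrected and quantified as area under the curve. Mean ± SEM of at least 3 independent experiments.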

GPR68 [8] = target: T4, GPR68; experiment: Real-time receptor internalization (TR-FRET), concentration-response; format: cell-based; design: hIL-2Ra signal peptide (N); expressed in transfected cells; conditions: receptor GPR68; mean, SEM and n (3)
Experimental: 48 hr prior to parallel assaying, SNAP-tagged oGPCR cells were plated (10,000 cells/well) in fibronectin-coated 384-well Epic biosensor microplates (Corning) and poly-D-lysine coated white 384-well plates (for internalization assays). SNAP- GLP-1 receptor was plated alongside orphan receptor cells as an internal assay control for internalization assays. Receptor-expression was induced with 0.1 μg/ml doxycycline.
A TR-FRET real-time internalization assay was used to examine peptide-dependent changes in orphan receptor localization as described previously ([Foster and Bräuner-Osborne, 2018]). Surface-expressed SNAP-tagged receptors were labeled with a cell-impermeable luminescent terbium cryptate (100 nM SNAP Lumi4-Tb; Cisbio, France) for 1 hr at 37°C. Cells were washed to remove excess terbium and incubated with fluorescein-O-acetic acid (100 μM; Sigma Aldrich) for 5 min at 37°C. Peptides were added as for DMR assays, and internalization responses were recorded for 60 min at 37°C using an EnVision 2104 Multimode plate reader (PerkinElmer). 100 nM GLP-1 was used as a positive control for SNAP-GLP1R internalization. Real-time internalization responses were calculated based on TR-FRET (excitation 340 nm; emission 520 nm and 615 nm), and were expressed as the ratio between donor (terbium) and acceptor (fluorescein) emission. For peptide screening analysis (both DMR and internalization assays), we calculated the area under the curve from the real-time traces. As the magnitude of the responses was variable between orphan receptor targets, particularly for the SNAP-tag based internalization assay where the signal is dependent on receptor surface expression, the AUC values were normalized to their respective plate averages and expressed as fold change. Validation experiments for receptor internalization were performed as above. Internalization data was processed in MS-Excel and area under the curve was used to generate concentration-response curves using GraphPad Prism 7.0. Data represent mean ± standard error of the mean (SEM) from at least 3 biologically independent experiments.

[9] = receptor grpr_human (GRPR, P30550)
[10] = HTLA cells transiently transfected, overnight stimulation, luciferase, mean ± SEM of 3-4 independent experiments in triplicate, read-out: pEC50, β-arrestin recruitment (Tango), BB3 (converted)

CSCC[C@H](NC(=O)[C@H](CC(C)C)NC(=O)[C@H](Cc1c[nH]cn1)NC(=O)CNC(=O)[C@@H](NC(=O)[C@H](C)NC(=O)[C@H](Cc1c[nH]c2ccccc12)NC(=O)[C@H](Cc1c[nH]cn1)NC(=O)[C@H](CC(N)=O)NC(=O)CNC(=O)[C@H](CCCN=C(N)N)NC(=O)[C@@H]1CCCN1C(=O)[C@H](Cc1ccc(O)cc1)NC(=O)[C@H](CCSC)NC(=O)[C@H](CCCCN)NC(=O)[C@@H](NC(=O)[C@H](CC(C)C)NC(=O)[C@@H](NC(=O)[C@@H](NC(=O)CNC(=O)CNC(=O)CNC(=O)[C@H](C)NC(=O)[C@@H]1CCCN1C(=O)[C@H](CC(C)C)NC(=O)[C@@H]1CCCN1C(=O)[C@@H](N)C(C)C)[C@@H](C)O)C(C)C)[C@@H](C)O)C(C)C)C(N)=O [Gastrin-releasing peptide (GRP)]
EC50 (BB3 [1]; pEC50, IP1 (nM), BB3, mean, SEM and n): 447 nM | EC50 (GPR1 [2]): 5.5 µM | EC50 (BB3 [3]; pEC50, DMR (peak), BB3, mean, SEM and n): 2040 nM | EC50 (BB3 [4]; BB3, mean, SEM and n, read-out: pEC50, Tango (fold over basal) (converted)): 43.7 µM | EC50 (GPR1 [5]): 398 nM | EC50 (BB3 [6]; pEC50, Internalization (AUC)): 14.8 µM

CSCC[C@H](NC(=O)[C@H](Cc1ccccc1)NC(=O)[C@H](Cc1c[nH]cn1)NC(=O)CNC(=O)[C@@H](NC(=O)[C@H](C)NC(=O)[C@H](Cc1c[nH]c2ccccc12)NC(=O)[C@H](CC(C)C)NC(=O)[C@H](CC(N)=O)NC(=O)CN)[C@@H](C)O)C(N)=O [Peptide 59, Neuromedin B, reference compound]
Emax, IP1 (BB3 [1]; BB3, mean, SEM and n): 81.0 nM | EC50 (BB3 [1]; pEC50, IP1 accumulation (Gq/11), BB3, HTRF IP-One, 30 min, 37°C, mean ± SEM of 3-4 independent experiments in triplicate, peptide 158 n = 2): 407 nM | EC50 (BB3 [3]): 37.2 nM | Emax, DMR (peak) (BB3 [3]; BB3, mean, SEM and n): 183.2 | pIC50_value (human GPCRs; [9]): 7.5 | pKi_value (human GPCRs; [9]): 8.1 | pKi_value (human GPCRs; receptor nmbr_human (NMBR, P28336)): 10.3 | Emax, Tango (fold over basal) (BB3 [4]; BB3, mean, SEM and n): 5.0 fold over basal | pEC50, Tango (fold over basal) (BB3 [4]; BB3, mean, SEM and n): 5.67 | EC50 (BB3 [4]; [10]): 2 µM | Emax, Internalization (AUC) (BB3 [6]; BB3, mean, SEM and n): 26.4 | EC50 (BB3 [6]; BB3, mean, SEM and n, read-out: pEC50, Internalization (AUC) (converted)): 1.95 µM

CSCC[C@H](NC(=O)[C@H](CC(C)C)NC(=O)[C@H](Cc1c[nH]cn1)NC(=O)CNC(=O)[C@@H](NC(=O)[C@H](C)NC(=O)[C@H](Cc1c[nH]c2ccccc12)NC(=O)[C@H](Cc1c[nH]cn1)NC(=O)[C@H](CC(N)=O)NC(=O)CNC(=O)[C@H](CCCNC(=N)N)NC(=O)[C@@H]1CCCN1C(=O)[C@H](Cc1ccc(O)cc1)NC(=O)[C@H](CCSC)NC(=O)[C@H](CCCCN)NC(=O)[C@@H](NC(=O)[C@H](CC(C)C)NC(=O)[C@@H](NC(=O)[C@@H](NC(=O)CNC(=O)CNC(=O)CNC(=O)[C@H](C)NC(=O)[C@@H]1CCCN1C(=O)[C@H](CC(C)C)NC(=O)[C@@H]1CCCN1C(=O)[C@@H](N)C(C)C)[C@@H](C)O)C(C)C)[C@@H](C)O)C(C)C)C(N)=O [Peptide 167, gastrin-releasing peptide, reference compound]
pIC50_value (human GPCRs; [9]): 10 | pKi_value (human GPCRs; [9]): 8.2 | EC50 (BB3 [4]; [10]): > 10 µM | EC50 (BB3 [6]; pEC50, internalization, BB3): > 10 µM

RFGIPMDRIGRNRLSNSRG [128 original]
DMR assays Emax (peak or AUC) (GPR68 [7]): 893047 | Internalization assays Emax (AUC) (GPR68 [8]): 8.3
